In the CheMixHub viscosity set:

Assay: xn = mol fraction of the nth substance listed

CCCCN(CCO)CCO + O
viscosity [mPa·s], 101 kPa
Settings	303.15 K	308.15 K	313.15 K	318.15 K	323.15 K
x1 = 0.0501	3.144	2.695	2.335	2.041	1.795
x1 = 0.0999	6.924	5.705	4.763	4.027	3.434
x1 = 0.15	11.35	9.112	7.428	6.13	5.123
x1 = 0.2	15.8	12.47	10.01	8.116	6.674
x1 = 0.3013	25.17	19.3	15.07	11.97	9.604
x1 = 0.3988	32.99	24.94	19.22	15.07	11.96
x1 = 0.4994	39.06	29.14	22.33	17.44	13.76
x1 = 0.6027	42.39	31.62	24.2	18.83	14.84
x1 = 0.7058	43.85	32.83	25.16	19.65	15.51
x1 = 0.8009	43.72	32.88	25.37	19.83	15.71
x1 = 0.899	42.96	32.66	25.3	19.86	15.82

O=[N+]([O-])[O-].O=[N+]([O-])[O-].[Ni+2] + O
Settings	viscosity [mPa·s]
322.46 K, 100 kPa, x1 = 0.03889	1.225

[Cs+].[I-] + O
310.15 K, 101 kPa
Settings	viscosity [mPa·s]
x1 = 0.000182	0.6958
x1 = 0.000913	0.6971
x1 = 0.001829	0.6934
x1 = 0.002695	0.6844
x1 = 0.003679	0.6676
x1 = 0.005197	0.6281
x1 = 0.005988	0.6009

Nc1cccc(Cl)c1 + O=C1CCCCC1
viscosity [mPa·s], 100 kPa
Settings	x1 = 0.0814	x1 = 0.1705	x1 = 0.2826	x1 = 0.3886	x1 = 0.4996	x1 = 0.5895	x1 = 0.6899	x1 = 0.7755	x1 = 0.8882
303.15 K	1.954	2.11	2.323	2.542	2.793	3.014	3.28	3.525	3.875
308.15 K	1.779	1.92	2.112	2.31	2.535	2.733	2.971	3.191	3.503
313.15 K	1.589	1.716	1.888	2.065	2.266	2.442	2.655	2.85	3.128
318.15 K	1.382	1.495	1.648	1.805	1.984	2.141	2.33	2.505	2.753
